Results from the supplement of paper PMC5908809.

Key:
[1] = tested on: normal primary NK cells, pool 3 (3 donors) (IL-2 2.5 ng/mL); experiment: percent inhibition of viability; higher = more inhibition; conditions: 72 h
IMC-1 (IL-2 20 ng/mL) [2] = experiment: as above; conditions: 72 h
[3] = tested on: normal primary NK cells, pool 1 (3 donors) (IL-2 2.5 ng/mL); experiment: as above; conditions: 72 h
KHYG-1 (IL-2 2.5 ng/mL) [4] = experiment: as above; conditions: 72 h
NK-YS (IL-2 2.5 ng/mL) [5] = experiment: as above; conditions: 72 h
DERL-7 (IL-2 2.5 ng/mL) [6] = experiment: as above; conditions: 72 h
[7] = tested on: normal primary NK cells, pool 1 (3 donors), resting (IL-2 0 ng/mL); experiment: as above; conditions: 72 h
KAI3 (IL-2 2.5 ng/mL) [8] = experiment: as above; conditions: 72 h
NK-92 (IL-2 2.5 ng/mL) [9] = experiment: as above; conditions: 72 h
YT (IL-2 2.5 ng/mL) [10] = experiment: as above; conditions: 72 h
[11] = tested on: normal primary NK cells, pool 2 (3 donors) (IL-2 2.5 ng/mL); experiment: as above; conditions: 72 h
NKL (IL-2 2.5 ng/mL) [12] = experiment: as above; conditions: 72 h
SNK-6 (IL-2 2.5 ng/mL) [13] = experiment: as above; conditions: 72 h
[14] = tested on: normal NK cells expanded with K562-aAPC; experiment: drug sensitivity score (DSS) (DSS units); higher = more sensitive; extreme values may be limits of the assay; conditions: 72 h; IL-2 2.5 ng/mL
Protocol: (§1)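 Drug sensitivity and resistance testing on K562-aAPC-expanded normal NK cells: 5 concentrations (10-fold steps over a 10,000-fold range), 72 h at 37 °C, viability by CellTiter-Glo normalised to DMSO and benzethonium chloride controls; DSS from the fitted curve.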

[15] = tested on: normal NK cells expanded with K562-aAPC; experiment: percent inhibition of viability; higher = more inhibition; conditions: 72 h, IL-2 2.5 ng/mL
Protocol: as §1

[16] = tested on: normal primary NK cells, pool 3 (3 donors) (IL-2 2.5 ng/mL); experiment: drug sensitivity score (DSS) (DSS units); higher = more sensitive; extreme values may be limits of the assay; conditions: 72 h
IMC-1 (IL-2 20 ng/mL) [17] = experiment: as above; conditions: 72 h
[18] = tested on: normal primary NK cells, pool 1 (3 donors) (IL-2 2.5 ng/mL); experiment: as above; conditions: 72 h
KHYG-1 (IL-2 2.5 ng/mL) [19] = experiment: as above; conditions: 72 h
NK-YS (IL-2 2.5 ng/mL) [20] = experiment: as above; conditions: 72 h
DERL-7 (IL-2 2.5 ng/mL) [21] = experiment: as above; conditions: 72 h
[22] = tested on: normal primary NK cells, pool 1 (3 donors), resting (IL-2 0 ng/mL); experiment: as above; conditions: 72 h
KAI3 (IL-2 2.5 ng/mL) [23] = experiment: as above; conditions: 72 h
NK-92 (IL-2 2.5 ng/mL) [24] = experiment: as above; conditions: 72 h
YT (IL-2 2.5 ng/mL) [25] = experiment: as above; conditions: 72 h
[26] = tested on: normal primary NK cells, pool 2 (3 donors) (IL-2 2.5 ng/mL); experiment: as above; conditions: 72 h
NKL (IL-2 2.5 ng/mL) [27] = experiment: as above; conditions: 72 h
SNK-6 (IL-2 2.5 ng/mL) [28] = experiment: as above; conditions: 72 h

CC/C(=C(\c1ccccc1)c1ccc(OCCN(C)C)cc1)c1ccccc1 [Tamoxifen] (max concentration tested 10000 nM)
percent inhibition of viability [%]
Conditions	1 nM	10 nM	100 nM	1000 nM	10000 nM
DERL-7 (IL-2 2.5 ng/mL) [6]	1.51	5.51	6.94	12.4	58.1
IMC-1 (IL-2 20 ng/mL) [2]	2.26	1.26	1.8	5.99	14.7
KAI3 (IL-2 2.5 ng/mL) [8]	-0.42	-4.09	3.87	8.65	100
KHYG-1 (IL-2 2.5 ng/mL) [4]	-5.57	-6.4	1.61	13.7	44.6
NK-92 (IL-2 2.5 ng/mL) [9]	-11.7	-1.59	-5.3	2.31	75.2
NK-YS (IL-2 2.5 ng/mL) [5]	-7.45	-5.92	-3.79	2.63	33.2
NKL (IL-2 2.5 ng/mL) [12]	-6.42	-9.93	0.08	21.2	73.4
SNK-6 (IL-2 2.5 ng/mL) [13]	-6.58	-17.5	-11.6	-6.09	51.8
YT (IL-2 2.5 ng/mL) [10]	-0.53	-2.4	0.91	3.43	58.4
[1]	-1.03	0.09	5.67	-1.54	30.3
[3]	1.45	8.11	7.67	12.3	89.6
[7]	2.3	22	15.1	20.6	90.1
[11]	-3.62	2.15	-3.66	4.91	68.8
[15]	-7.94	-6.09	-3.11	5.82	37.2

Conditions	drug sensitivity score
DERL-7 (IL-2 2.5 ng/mL) [21]	5.15
IMC-1 (IL-2 20 ng/mL) [17]	0.37
KAI3 (IL-2 2.5 ng/mL) [23]	6.93
KHYG-1 (IL-2 2.5 ng/mL) [19]	4.33
NK-92 (IL-2 2.5 ng/mL) [24]	4.46
NK-YS (IL-2 2.5 ng/mL) [20]	1.92
NKL (IL-2 2.5 ng/mL) [27]	7.22
SNK-6 (IL-2 2.5 ng/mL) [28]	2.32
YT (IL-2 2.5 ng/mL) [25]	3.65
[14]	2.77
[16]	1.21
[18]	7.04
[22]	8.03
[26]	4.53

Cc1cc(Nc2nc(N[C@@H](C)c3ncc(F)cn3)ncc2Cl)[nH]n1 [AZD1480] (max concentration tested 1000 nM)
percent inhibition of viability [%]
Conditions	0.1 nM	1 nM	10 nM	100 nM	1000 nM
DERL-7 (IL-2 2.5 ng/mL) [6]	0.17	6.33	14.9	62	94.2
IMC-1 (IL-2 20 ng/mL) [2]	-4.11	-5.28	-12.7	-1.83	73.8
KAI3 (IL-2 2.5 ng/mL) [8]	3.55	2.45	24.7	77	87.5
KHYG-1 (IL-2 2.5 ng/mL) [4]	0.27	3.46	15.9	86.6	95.6
NK-92 (IL-2 2.5 ng/mL) [9]	-8.05	3.14	1.52	28.2	78
NK-YS (IL-2 2.5 ng/mL) [5]	0.27	-0.67	8.06	35.8	65.3
NKL (IL-2 2.5 ng/mL) [12]	-13.4	-3.23	19.8	65.5	76.2
SNK-6 (IL-2 2.5 ng/mL) [13]	-1.78	7.1	4.31	59.5	96.2
YT (IL-2 2.5 ng/mL) [10]	2.34	-1.75	1.84	10.8	70.7
[1]	-15.9	-5.65	-9.13	21.8	58.1
[3]	-6.31	-10.2	7.91	39.2	68.6
[7]	-5.75	-9.19	6.02	2	2.57
[11]	-8.71	-7.23	-6.75	36.8	58
[15]	-0.54	2.03	10.3	53.7	95.5

Conditions	drug sensitivity score
DERL-7 (IL-2 2.5 ng/mL) [21]	13.7
IMC-1 (IL-2 20 ng/mL) [17]	3.91
KAI3 (IL-2 2.5 ng/mL) [23]	17.1
KHYG-1 (IL-2 2.5 ng/mL) [19]	17.9
NK-92 (IL-2 2.5 ng/mL) [24]	8.24
NK-YS (IL-2 2.5 ng/mL) [20]	7.94
NKL (IL-2 2.5 ng/mL) [27]	14.5
SNK-6 (IL-2 2.5 ng/mL) [28]	12.5
YT (IL-2 2.5 ng/mL) [25]	5.7
[14]	12
[16]	6.17
[18]	8.59
[22]	0
[26]	7.54
